This is an account of results in ChEMBL document CHEMBL1201862, “PubChem BioAssay data set” (2004).

What all share (experiment): DTP human tumour cell line panel, 48 h
Test [1] concerns A549.
In test [2] the test system is SNB-19.
For test [3], the system named is HOP-62.
In test [4] the test system is OVCAR-3.
Test [5] relates to DU-145.
The subject of test [6] is OVCAR-5.
For test [7], the system named is CAKI-1.
Test [8] concerns KM-20L2.
The subject of test [9] is OVCAR-4.
In test [10] the test system is LOX IMVI.
Test [11] relates to U-251.
Test [12] relates to NCI-H522.
The test system of test [13] is MDA-MB-231.
The subject of test [14] is UACC-62.
Test [15] has as its system Malme-3M.
Test [16] deals with PC-3.
Test [17] deals with SNB-75.
The subject of test [18] is COLO 205.
The subject of test [19] is MCF7.

The structures appear in SMILES notation.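 96-well plates; 48 h exposure; 5 concentrations. Endpoints by linear interpolation between flanking doses. Not reached: highest tested concentration assigned. The concentration for 50% growth inhibition is given as GI50.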 Active and inactive are the calls of the source. Rule as the data show it: active = GI50 up to about 1.1 µM and inactive = higher.

For `O=C1/C(=C\c2ccccc2)CN(C(=O)CCN2CCCCC2)C/C1=C/c1ccccc1`, the GI50 was 3.73 µM (inactive) in [1]; 1.84 µM (inactive) in test [2]; 12.9 µM (inactive) in [3]; 2.28 µM (inactive) in test [4]; 5.21 µM (inactive) in test [5]; 1.72 µM (inactive) in test [6]. The GI50 in test [7] was 1.71 µM (inactive); in [8], 0.811 µM (active); in test [9] it was 1.73 µM (inactive); in test [10] it was 0.283 µM (active); in test [11], 0.632 µM (active); in test [12], 0.757 µM (active). Also, the GI50 in test [13] is 1.48 µM (inactive); in test [14], 1.43 µM (inactive); in test [15], 2.25 µM (inactive); in [16], 1.24 µM (inactive); in test [17] it was 0.834 µM (active); in test [18] it was 1.76 µM (inactive). Besides, the 50% growth inhibitory concentration (GI50) in [19] was 0.415 µM (active).
With `Cn1c(-c2ccccc2)cc(-c2cccs2)c1-c1cccs1`, the GI50 in test [1] was > 100 µM (inactive); in [2], > 100 µM (inactive); in [3] it was > 81.3 µM (inactive); in test [4] it was > 100 µM (inactive); in [6] it was > 100 µM (inactive); in test [7], > 100 µM (inactive). Further, the GI50 was 47.2 µM (inactive) in test [8]; > 96.4 µM (inactive) in test [9]; 52 µM (inactive) in test [10]; > 100 µM (inactive) in test [11]; > 64.6 µM (inactive) in test [12]; > 100 µM (inactive) in test [14]. In addition, the GI50 in [15] was > 100 µM (inactive); in test [17], > 100 µM (inactive); in test [18], 82.6 µM (inactive); in [19] it was 24 µM (inactive).
Turning to `CC12CCCCC1(C)C2Sc1ccccc1` (stereo not given), the GI50 in test [1] is 43.6 µM (inactive); in [2], 38.5 µM (inactive); in test [3], > 100 µM (inactive); in test [4], 27.9 µM (inactive); in test [6], > 100 µM (inactive); in test [7], > 56.1 µM (inactive). The GI50 in test [8] was > 100 µM (inactive); in [9], > 73.3 µM (inactive); in test [10] it was 29.9 µM (inactive); in [11], 32.3 µM (inactive); in test [12], 28.9 µM (inactive); in test [14], 56.9 µM (inactive). The GI50 in test [15] is 63 µM (inactive); in test [17], 70.8 µM (inactive); in test [18], > 65.3 µM (inactive).
Regarding `COc1ccc(NC(=O)C(=O)C2CNC(=O)NC2=O)c(OC)c1` (stereo not given), the GI50 in test [1], in test [2], in [3], in test [4], in test [6] and in [7] was > 100 µM (inactive) each time. Moreover, the GI50 in test [8], in test [9], in [10], in test [11], in [12] and in test [14] was > 100 µM (inactive) throughout. Moreover, the GI50 in test [15], in test [17] and in [18] was > 100 µM (inactive) in each case.
Consider `CCC(C(=O)O)c1ccc(OCc2ccccc2)cc1` (stereo not given), for which the GI50 in test [1], in [2], in test [3], in [4], in test [6] and in test [7] was > 100 µM (inactive) throughout. Moreover, the GI50 in test [8], in test [9], in [10], in test [11], in test [12] and in test [14] was > 100 µM (inactive) throughout. Moreover, the GI50 in test [15] was > 100 µM (inactive); in test [17] it was 70 µM (inactive); in [18], > 100 µM (inactive).
Take `Cc1ccc(NC(=O)C(=O)CC(=O)c2c(C)[n+]([O-])c3ccccc3[n+]2[O-])cc1C`: the GI50 in test [1] is > 100 µM (inactive); in [2], 47.3 µM (inactive); in test [3] it was > 100 µM (inactive); in test [4], 48.4 µM (inactive); in [6], > 100 µM (inactive); in [7], > 100 µM (inactive). The GI50 is 91.8 µM (inactive) in test [8]; > 100 µM (inactive) in [9]; > 100 µM (inactive) in test [10]; > 100 µM (inactive) in test [11]; 66.2 µM (inactive) in test [12]; > 100 µM (inactive) in test [14]. The GI50 in [15] was > 100 µM (inactive); in [17], > 100 µM (inactive); in test [18], 43.7 µM (inactive).
Take `Cc1cc2ncn(-c3nc4ccccc4nc3C(C#N)S(C)(=O)=O)c2cc1C` (stereo not given): the GI50 in test [1], in test [2], in [3], in [4], in [6] and in test [7] was > 100 µM (inactive) each time. The GI50 in test [8], in test [9], in test [10], in test [11], in [12] and in [14] was > 100 µM (inactive) throughout. Moreover, the GI50 in test [15], in test [17] and in test [18] was > 100 µM (inactive) each time.
For the compound `COC(=O)C1(O)CC(=O)CCC1c1ccc(OC)cc1` (stereo not given), the GI50 in test [1], in [2], in test [3], in test [4], in test [6] and in test [7] was > 100 µM (inactive) in each case. In addition, the GI50 in [8], in test [9], in test [10], in [11], in test [12] and in [14] was > 100 µM (inactive) throughout. Besides, the GI50 in test [15], in test [17] and in test [18] was > 100 µM (inactive) in each case.
In the case of `COc1ccc2[nH]c(=O)cc(C)c2c1[N+](=O)[O-]`, the GI50 in test [1] is > 100 µM (inactive); in [2], > 100 µM (inactive); in [3], > 100 µM (inactive); in test [4], > 100 µM (inactive); in test [6], > 100 µM (inactive); in [7], 31.7 µM (inactive). The GI50 in test [8] was > 100 µM (inactive); in [9] it was > 100 µM (inactive); in test [10] it was > 100 µM (inactive); in [11], > 100 µM (inactive); in test [12], 47.4 µM (inactive); in test [14], > 100 µM (inactive). Besides, the GI50 was > 100 µM (inactive) in test [15], 10.5 µM (inactive) in test [17] and > 100 µM (inactive) in test [18].

The GI50 is the concentration at which growth is held to half of that of the control.
